Assay results as given in PMC3091868, “A Novel Structural Framework for α1A/D-Adrenoceptor Selective Antagonists Identified Using Subtype Selective Pharmacophores” (PLoS ONE, 2011).
Read-outs that look alike come from different tables or passages of the source.

Columns and labels:
α1A-AR [1] = biological target: T1, α1A-AR (Rattus norvegicus, UniProt P43140); assay: [3H]Prazosin competition/saturation binding on COS-1 membranes expressing α1A-AR; design: species or system rodent; details: [3H]Prazosin 200 pM, COS-1 membranes
T1 construct: expressed in transfected cells; host or cells: COS-1
T1 sequence (P43140 1-466): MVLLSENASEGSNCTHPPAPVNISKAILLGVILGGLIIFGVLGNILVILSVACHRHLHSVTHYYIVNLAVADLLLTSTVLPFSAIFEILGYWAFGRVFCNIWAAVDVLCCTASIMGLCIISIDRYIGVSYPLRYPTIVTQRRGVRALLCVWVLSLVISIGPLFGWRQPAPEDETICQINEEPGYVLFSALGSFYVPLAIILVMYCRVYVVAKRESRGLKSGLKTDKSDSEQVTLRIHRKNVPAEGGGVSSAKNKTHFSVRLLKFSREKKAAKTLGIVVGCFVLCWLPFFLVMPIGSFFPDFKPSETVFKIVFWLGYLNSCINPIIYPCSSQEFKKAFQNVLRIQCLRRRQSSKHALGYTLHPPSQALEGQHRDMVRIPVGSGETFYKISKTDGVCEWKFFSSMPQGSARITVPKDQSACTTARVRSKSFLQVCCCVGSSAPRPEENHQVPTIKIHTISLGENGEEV
Experimental: (§1) COS-1 cells (American Type Culture Collection, Manassas, VA) were cultured in Dulbecco's modified Eagle's medium (DMEM) supplemented with 10% (v/v) heat inactivated fetal bovine serum (FBS), 100 µg ml^−1 penicillin and 100 µg ml^−1 streptomycin. Cells were maintained and passaged upon reaching confluence by standard cell culture techniques. pMT4 plasmids containing rodent α1-AR (a kind gift from Prof R Graham, Victor Chang Cardiac Research Institute, Australia) were used to transfect cells. Transient expression in COS-1 cells was accomplished using two techniques; the diethylaminoethane-dextran (DEAE-dextran) and Lipofectamine 2000 (Invitrogen, Carlsbad, CA, USA) methods. Briefly, the DEAE-dextran method involved washing of cells with phosphate buffered saline (PBS), followed by the addition of the DNA mixture (12–25 µg/4×10^6 cells) in DEAE-dextran (10 mg ml^−1) to cells at 60–80% confluency. Following a 3 h incubation, a PBS wash with 10% DMSO was used to shock the cells. Cells were harvested 72 h post transfection. For the Lipofectamine 2000 method, cells were incubated for 12 h with Opti-MEM (GIBCO BRL, Gaithersburg, MD, USA) containing Lipofectamine 2000.
(§2) Membranes were prepared as described previously. Briefly, COS-1 cells were transiently transfected using the DEAE-dextran method. […] Protein concentration was determined using Bradford reagent (Sigma, St Louis, MO, USA).
(§3) For all binding experiments, the reaction mixture was incubated for 1 h at room temperature, stopped by the addition of 4°C PBS and filtered with a Brandel cell harvester (Gaithersburg, MD, USA) on GF/C filters. Nonspecific binding was defined as binding in the presence of 100 µM phentolamine hydrochloride.
(§4) Nonlinear regression analysis of saturation and competition binding assay data was performed using the […] curve fitting program GraphPad Prism (San Diego, CA, USA). […] The competitive binding data for each ligand was tested for both one and two -site binding.

α1B-AR = biological target: T2, α1B-AR (Mesocricetus auratus, UniProt P18841); assay: [3H]Prazosin competition/saturation binding on COS-1 membranes expressing α1B-AR; design: species or system rodent
T2 construct: expressed in transfected cells; host or cells: COS-1
T2 sequence (P18841 1-515): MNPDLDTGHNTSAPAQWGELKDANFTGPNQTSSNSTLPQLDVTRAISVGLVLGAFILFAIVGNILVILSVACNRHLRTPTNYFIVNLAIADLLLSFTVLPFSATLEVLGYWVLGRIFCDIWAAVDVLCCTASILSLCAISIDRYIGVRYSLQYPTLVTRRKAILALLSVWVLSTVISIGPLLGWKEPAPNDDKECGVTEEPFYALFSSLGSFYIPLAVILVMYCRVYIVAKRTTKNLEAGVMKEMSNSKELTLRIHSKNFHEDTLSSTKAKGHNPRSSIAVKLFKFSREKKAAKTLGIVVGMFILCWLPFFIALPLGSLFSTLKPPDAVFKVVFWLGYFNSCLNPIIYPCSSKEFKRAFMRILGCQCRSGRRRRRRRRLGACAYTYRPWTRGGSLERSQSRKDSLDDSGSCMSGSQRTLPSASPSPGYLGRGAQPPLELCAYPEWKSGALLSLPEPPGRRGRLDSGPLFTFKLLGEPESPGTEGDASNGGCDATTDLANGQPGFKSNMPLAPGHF
Experimental: as §1, §2, §3, §4

α1D-AR = biological target: T3, α1D-AR (Rattus norvegicus, UniProt P23944); assay: [3H]Prazosin competition/saturation binding on COS-1 membranes expressing α1D-AR; design: species or system rodent; details: [3H]Prazosin 200 pM
T3 construct: expressed in transfected cells; host or cells: COS-1
T3 sequence (P23944 1-561): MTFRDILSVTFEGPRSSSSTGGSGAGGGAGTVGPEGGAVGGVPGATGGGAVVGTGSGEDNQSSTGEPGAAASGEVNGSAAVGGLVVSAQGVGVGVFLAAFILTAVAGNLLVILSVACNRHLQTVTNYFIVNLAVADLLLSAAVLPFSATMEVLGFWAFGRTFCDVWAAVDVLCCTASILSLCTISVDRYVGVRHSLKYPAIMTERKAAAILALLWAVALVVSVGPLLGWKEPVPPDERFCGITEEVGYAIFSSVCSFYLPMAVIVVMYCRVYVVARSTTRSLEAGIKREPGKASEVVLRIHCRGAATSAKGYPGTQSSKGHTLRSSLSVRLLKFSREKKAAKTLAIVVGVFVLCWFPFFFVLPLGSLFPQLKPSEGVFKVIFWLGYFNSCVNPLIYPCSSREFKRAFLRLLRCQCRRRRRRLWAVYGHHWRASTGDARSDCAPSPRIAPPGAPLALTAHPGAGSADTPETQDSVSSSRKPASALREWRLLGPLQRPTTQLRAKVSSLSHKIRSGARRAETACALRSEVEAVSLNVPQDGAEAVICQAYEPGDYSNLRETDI
Experimental: as §1, §2, §3, §4

α1A-AR [2] = biological target: T1, α1A-AR; assay: Phosphatidylinositol hydrolysis (IP accumulation) assay in COS-1 cells expressing α1A-AR; format: cell-based, rodent; details: 20 min compound, then 10 µM (-)-norepinephrine 30 min, COS-1 cells; read-out: pIC50, inhibition of norepinephrine induced IP accumulation at α1A-AR (converted)
Experimental: as §1
Accumulation of [^3H] inositol phosphates (IPs) was determined as described previously. Briefly, COS-1 cells were transiently transfected with α1A, α1B and α1D - AR pMT4 plasmids using the Lipofectamine method. 24 h after transfection, cells were seeded into 96 well plates and labelled overnight with 20 µCi ml^−1 [^3H]myo-inositol in inositol free DMEM supplemented with 5% charcoal stripped FBS. Cells were washed twice with inositol free DMEM, and incubated in inositol free DMEM for 2 h at 37°C. Cells were treated for 20 minutes with LiCl (20 mM) and propanolol (20 µM) in the presence or absence of tested compounds. Agonists were then added for 30 min, and the reaction was terminated by addition of 0.4 M formic acid. Cells were lysed by freeze thawing twice and were applied to AG 1-X8 columns. Total IPs were eluted with 1 M ammonium formate in 0.1 M formic acid. 200 µL of eluted sample was diluted with 1 mL reverse osmosis water and 5 mL Ultimaflow scintillation fluid (Perkin Elmer), and were counted in a liquid scintillation counter.
Compounds were administered alone (100 µM) or prior to the addition of 10 µM […], to screen for agonist or antagonist activity respectively.
Figure 2 Inhibition of norepinephrine induced inositol phosphate (IP) accumulation at α1A- AR. α1A-AR transfected cells labelled overnight with [^3H]- myo-inositol were treated with indicated concentrations (300 µM – 0.1 µM) of test compounds, 1 (▪), 2 (▵), and 11 (○), for 20 min. This was followed by a 30 min. stimulation with 10 µM (-)- norepinephrine, following which total IP accumulation was determined. Data was normalized against basal COS-1 cell IP production and expressed as a percentage of the (-)-norepinephrine-stimulated maximal IP response of that receptor subtype. The data represented the mean ± SE of a single experiment (n = 4–5), performed in triplicate.
Figure 3 Inositol phosphate (IP) accumulation in the presence of norepinephrine and compound 8 at the α1A- adrenoceptor (AR). α1A-AR transfected cells were labelled with [^3H]- myo-inositol. Following a 20 min. treatment with lithium chloride (20 mM) and propanolol (20 µM) the cells were stimulated with the indicated concentrations (300 µM − 0.1 µM) of (-) norepinephrine (•) or compound 8 (▪) for 30 min. Total inositol phosphate (IP) accumulation was determined as described under “Materials and Methods”. Data was normalized against basal COS-1 cell IP production and expressed as a percentage of the (-)-norepinephrine-stimulated maximal IP response. The data represents the mean ± SE of three separate experiments (n = 3), performed in duplicate or triplicate.

[3] = antilog of mean pKi, Cheng-Prusoff, read-out: Ki α1A-AR
[4] = pKi = -Log Ki, read-out: pKi α1A-AR (converted)
[5] = [3H]Prazosin 200 pM, COS-1 membranes, antilog of mean pKi, Cheng-Prusoff, read-out: Ki α1B-AR
[6] = [3H]Prazosin 200 pM, COS-1 membranes, pKi = -Log Ki, read-out: pKi α1B-AR (converted)
[7] = antilog of mean pKi, Cheng-Prusoff, read-out: Ki α1D-AR
[8] = pKi = -Log Ki, read-out: pKi α1D-AR (converted)

Compound	Ki (α1A-AR [1]; [3])	Ki (α1A-AR [1]; [4])	Ki (α1B-AR; [5])	Ki (α1B-AR; [6])	Ki (α1D-AR; [7])	Ki (α1D-AR; [8])	Ki (α1A-AR [1]; Ki α1A-AR, antilog of mean pKi, Cheng-Prusoff)	Ki (α1B-AR)	Ki (α1D-AR; Ki α1D-AR, antilog of mean pKi, Cheng-Prusoff)	IC50 (α1A-AR [2])
Cc1ccc(C(=O)/C(S)=C(\Nc2cccc(Cl)c2)[n+]2ccccc2)cc1 [Compound 10]	> 100 µM	> 100 µM	> 100 µM	> 100 µM	> 100 µM	> 100 µM				
Cc1ccc(C)c(N2CCN(CC(O)COC(C)(C)C)CC2)c1 (stereo not shown) [Compound 1]	1.17 µM		1.42 µM		0.83 µM	0.794 µM	< 2 µM	< 2 µM	< 2 µM	25.1 µM
Cc1cccc(CN2CCCN(C(=S)NCCN3CCOCC3)CC2)n1 [Compound 5]	> 100 µM	> 100 µM	> 100 µM	> 100 µM	> 100 µM	> 100 µM				
Cc1cc(CN2CCCN(C(=S)Nc3ccccc3C(F)(F)F)CC2)no1 [Compound 4]	> 100 µM	> 100 µM	> 100 µM	> 100 µM	> 100 µM	> 100 µM				

The remaining compounds from weak to strong by Ki (α1A-AR [1]; [3]), led by results:

Ki (α1A-AR [1]; [3])	Ki (α1A-AR [1]; [4])	Ki (α1B-AR; [5])	Ki (α1B-AR; [6])	Ki (α1D-AR; [7])	Ki (α1D-AR; [8])	Compound	Ki (α1A-AR [1]; Ki α1A-AR, antilog of mean pKi, Cheng-Prusoff)	Ki (α1B-AR)	Ki (α1D-AR; Ki α1D-AR, antilog of mean pKi, Cheng-Prusoff)	IC50 (α1A-AR [2])
45.5 µM	30.9 µM	> 100 µM	> 100 µM	62.4 µM	32.4 µM	CCCCN(Cc1ccc(N(CC)CC)cc1)CC(O)c1ccc(Cl)cc1 (stereo not shown) [Compound 12]				
20.3 µM	14.8 µM	38.5 µM	17 µM		9.77 µM	CN(C)CC(C(=O)c1ccc(Br)cc1)C(Br)c1ccccc1 (stereo not shown) [Compound 7]				
